According to PMC9855104, “Use of High-Dose Nebulized Colistimethate in Patients with Colistin-Only Susceptible Acinetobacter baumannii VAP: Clinical, Pharmacokinetic and Microbiome Features” (Antibiotics, 2023):
“Also recorded” adds a separate entry of the source. Peptide text beside a SMILES is read from it.

Tests used:
[1] = ELF pharmacokinetics of colistin and CMS after nebulization (micro-BAL, LC-MS/MS); type: in vivo, ICU patients
Protocol: According to patients’ respiratory status, two micro-bronchoalveolar lavages (BALs) (40 mL of sterile 0.9% saline solution were blindly instilled through a telescopic catheter and immediately aspirated in a trap) were performed at steady state, before nebulization and 1 h after the end. ELF colistin concentration (COLELF) was calculated from BAL concentration (COLBAL) using urea as a dilution marker: COLELF = COLBAL X urea dilution index (plasma urea concentration/BAL urea concentration).
Purification and separation of colistin and CMS were performed using and modifying the Gobin assay. BAL samples were extracted by solid-phase extraction followed by evaporation to dryness and reconstitution in mobile phase. The chromatographic separation was carried out on an AQUITY UPLC C18 column. Polymyxin B was used as internal standard. The detection was performed on a triple quadrupole tandem mass spectrometer using multi-reaction monitoring via an electrospray ionization source with positive ionization mode.

[2] = Safety and adverse events of colistin nebulization (DHHS-CTCAE version 3.0); type: in vivo, ICU patients; details: 5 MIU q8, vibrating mesh nebulizer; 134 patients, 1376 days of nebulization
Protocol: Patients received 5 MIU of CMS (Colimycine®, Sanofi, Paris, France) dissolved in 6 mL of saline solution by nebulization over 30 min using a vibrating-mesh nebulizer (Aeroneb Pro®, Aerogen, Galway, […]) every 8 h. Solutions for nebulization were freshly prepared. During aerosol delivery, all patients were sedated and received assisted/controlled mechanical ventilation with a tidal volume of 6–8 mL/kg of predicted body weight and respiratory rates of 12–15 cycles/min. The humidifier was removed and the nebulizer was inserted near the Y-piece connector on the inspiratory arm
VAP, septic shock, and acute kidney injury requiring continuous […] replacement therapy were defined according to current recommendations. VAP was diagnosed in the presence of radiological and clinical signs consisting of a new and persistent infiltrate on the chest radiograph associated with two of the three following criteria: purulent tracheal aspirates, hyperthermia > 38 °C or hypothermia < 36 °C, and peripheral leukocytosis > 10,000/μL or < 1500/μL. […] Safety and adverse events (AE) were determined through the biochemical abnormalities documented in medical records according to the Department of Health and Human Services—Common Terminology Criteria for Adverse Events (DHHS-CTCAE version 3.0) classification. […]

[3] = test system: Acinetobacter baumannii isolates; assay: Minimum inhibitory concentration of AB isolates; type: cell-based; details: median [interquartile range]; values available for 79 patients; Micronaut AST system-based BMD, VITEK 2 AST-N397 card; EUCAST version 11.0
Protocol: AB isolates were identified by using matrix-assisted laser desorption ionization-time of flight mass spectrometry (MALDI-TOF MS). Minimum inhibitory concentrations (MICs) were determined by a Micronaut AST system-based BMD, VITEK 2 AST-N397 card, according to the manufacturer’s instructions. EUCAST (version 11.0, 2021) clinical breakpoints were used to interpret MICs.

[4] = cited from earlier work
Protocol: Despite the recent introduction of new antibiotics against difficult-to-treat bacteria, colistin is still used in the critically ill setting, especially as part of combination therapies. This drug is a antibiotic; it is administered as intravenous colistimethate (CMS) and then undergoes extensive plasmatic hydrolysis. CMS is mainly metabolized by the renal route apart from the amount that is modified to colistin. This agent is cleared by extra-renal, yet unknown, mechanisms, but its plasmatic levels may increase in the presence of renal failure due to the reduced clearance a ... || From a pharmacokinetic standpoint, CMS nebulization may overcome its negligible ELF penetration after intravenous administration. Although many factors may interfere with the reliability of the detected lung antibiotics concentration, including the diagnostic technique, the binding to inflammatory molecules, and the heterogeneity of lung aeration, it is widely accepted that CMS nebulization is the only strategy to obtain alveolar levels above MIC for mostly Gram-negative MDR pathogens. When treating VAP due to COS bacteria, a correct drug dose and nebulizer strategy should be reco ...

[5] = in vivo; cited from earlier work
Description: In addition, the observed safety profile may be further improved by correct CMS ...

[6] = test system: multidrug-resistant / COS Gram-negative VAP; details: cited from earlier work
Description: There is pre-clinical evidence to support vibrating-mesh nebulizers, over jet and ultrasonic ones.

[7] = following 24 h of dosing, vibrating meshes, ten patients with MDR VAP
[8] = 326 patients with COS Gram-negative VAP, aerosolized 2 MIU q 8 h, jet nebulizer

Row | Compound | ELF concentration one hour after nebulization ([1]; median [IQR], 7 patients, after 72 h of nebulized therapy (CMS 5 MIU q8), micro-BAL, urea dilution index, UPLC C18, tandem MS) | ELF colistin concentrations relative to CRAB minimal-inhibitory concentration (in words) ([1]; nebulized CMS 5 MIU q8) | Drug-related / pulmonary adverse events of nebulization (in words) [2] | MIC [3] | Samples with colistin ELF concentrations above 10 mcg/mL ([4]; 20 patients, 1 MIU nebulization, jet and ultrasonic machines, samples at 1 h after the aerosol) | Trough-predicted colistin ELF level, 3 MII nebulized CMS [4, 7] | Trough-predicted colistin ELF level, 5 MIU nebulized CMS [4, 7] | ELF penetration after intravenous administration (in words) [4] | Bronchospasm [5] | Episodes of bronchospasm (in words) [5] | Neuromuscular toxicity [5] | Reduction in the rate of renal failure [5] | Clinical cure rate vs controls treated with intravenous antibiotics (in words) ([6]; 5 MIU q8 h, vibrating plate nebulizer, 44 patients with multidrug-resistant AB and Pseudomonas aeruginosa vs 122 controls) | DAY-14 clinical failure rate (in words) [6, 8] | Mortality (in words) [6, 8]
1 | CC[C@H](C)CCCCC(=O)N[C@@H](CCN)C(=O)N[C@H](C(=O)N[C@@H](CCN)C(=O)N[C@H]1CCNC(=O)[C@H]([C@@H](C)O)NC(=O)[C@H](CCN)NC(=O)[C@H](CCN)NC(=O)[C@H](CC(C)C)NC(=O)[C@@H](CC(C)C)NC(=O)[C@H](CCN)NC1=O)[C@@H](C)O [colistin] (HELM PEPTIDE1{[CC[C@H](C)CCCCC(=O)[*:2]].[Dab].T.[Dab].[Dab].[Dab].[dL].L.[Dab].[Dab].T}$PEPTIDE1,PEPTIDE1,5:R3-11:R2$$$V2.0) | 121.7 [40.1–143.1] mcg/mL | far above | did not observe any; also recorded: without observing any | 1 [0.5–1] mcg/mL | 25% | 120.4 µg/mL | 200.7 µg/mL | minimal | – | – | – | – | – | – | –
2 | colistimethate [CMS] | – | – | did not observe any | – | – | – | – | negligible | 2% | did not report any | 3% | 33% | similar | significantly lower | without affecting
